In brackets after ≈: the same amount, converted by molar mass. Entries after “also recorded” stand apart in the source; their conditions may differ. Read-outs that look alike come from different tables or passages of the source.
Key:
[1] = system: VanA VRE (E. faecalis BM 4166 and E. faecium ATCC BAA-2317); experiment: Cell wall permeability assay (propidium iodide uptake); format: cell-based, Enterococcus faecalis; Enterococcus faecium; details: 10 μM compound
Text: The effect of the compounds on cell membrane permeability was examined by measuring cytoplasmic membrane uptake of the fluorescent probe propidium iodide in the same VanA vancomycin-resistant E. faecalis (BM 4166) and E. faecium (ATCC BAA-2317) strains. This fluorescent probe only enters cells with permeabilized cell membranes and is detected by the emission of fluorescence upon intracellular nucleic acid binding [Boulos et al., J Microbiol Methods 1999, 37(1):77-86].
Fresh, mid-log phase VanA VRE in pH 7.2 buffer at 25° C. were preincubated with propidium iodide (10 μM) for 5 minutes before the test compounds were added, monitoring the fluorescence emission at 617 nm (excitation at 535 nm) over time, both pre (5 minutes) and post (15 minutes) compound addition. Rapid and sustained increases in fluorescence intensity are observed immediately upon addition of test compounds that induce bacterial cell membrane permeability.
One day before a study was run, cultures of vancomycin-resistant Enterococcus faecalis (VanA VRE, BM4166) and Enterococcus faecium (VanA VRE, ATCC BAA-2317), were inoculated and grown in an orbital shaker at 37° C. in 100% brain-heart infusion broth for 12 hours. The above bacterial solution was subjected to a subculture to obtain fresh mid-log phase bacterial cells (total volume of bacterial suspension=7 mL, incubation time=6 hours, OD600=0.6). After the cultured bacteria were harvested (3000 rpm, 4° C., 20 minutes), the white bacterial precipitate was washed and resuspended in 5 mM glucose and 5 mM HEPES buffer (1:1, 500 μL, pH=7.2).
This bacterial suspension (130 μL) was charged into a 96-well black plate with a clear bottom (Corning 3650). The propidium iodide dye (10 μL, 150 μM DMSO solution) was added to the above suspension and the fluorescence was monitored at 25° C. for 5 minutes at 30 second intervals using a microplate reader (Molecular Devices®, Max Gemini EX) at an excitation wavelength of 535 nm and an emission wavelength of 617 nm. The test compound (150 μM, 10 μL) was added to the cell suspension and the fluorescence was monitored at 25° C. for an additional 15 minutes.

[2] = system: VanA VRE (E. faecalis BM 4166 and E. faecium ATCC BAA-2317); experiment: Antimicrobial activity against VanA VRE (both strains); format: cell-based, Enterococcus faecalis; Enterococcus faecium
Text: (§1) One day before a study was run, fresh cultures of vancomycin-sensitive Staphylococcus aureus (VSSA strain ATCC 25923), methicillin and oxacillin-resistant Staphylococcus aureus subsp. aureus (MRSA strain ATCC 43300), vancomycin-resistant Enterococcus faecalis (VanA VRE, BM4166), Enterococcus faecium (VanA VRE, ATCC BAA-2317), vancomycin-resistant Enterococcus faecalis (VanB VRE, strain ATCC 51299), Escherichia coli (ATCC 25922), Acinetobacter baumannii (ATCC BAA-1710), Pseudomonas aeruginosa (ATCC 15442), Klebsiella pneumoniae (ATCC 700603) were inoculated and grown in an orbital shaker at 37° C. in 100% Mueller-Hinton broth (VSSA, MRSA and VanB VRE), 100% brain-heart infusion broth (VanA VRE, A. baumannii and K. pneumoniae) or 100% Luria broth (E. coli and P. aeruginosa). After 24 hours, the bacterial stock solutions were serially diluted with the culture medium (10% Mueller-Hinton broth for VSSA, MRSA and VanB VRE or 10% brain-heart infusion broth for VanA VRE A. baumannii and K. pneumoniae or 10% Luria Broth for E. coli and P. aeruginosa) to achieve a turbidity equivalent to a 1:100 dilution of a 0.5 M McFarland solution. This diluted bacterial stock solution was then inoculated in a 96-well V-shaped glass coated microtiter plate, supplemented with serial diluted aliquots of the antibiotic solution in DMSO (4 μL), to achieve a total assay volume of 0.1 mL. The plate was then incubated at 37° C. for 18 hours, after which minimal inhibitory concentrations (MICs) were determined by monitoring the cell growth (observed as a pellet) in the wells.
(§2) The lowest concentration of antibiotic (in μg/mL) capable of eliminating cell growth in the wells is the reported MIC value. The reported MIC values for the vancomycin analogues were determined against vancomycin as a standard in the first well.*

[3] = system: VanA VRE (E. faecalis BM 4166 and E. faecium ATCC BAA-2317); experiment: Cell wall biosynthesis inhibition assay (accumulation of UDPMurNAc-pp 19); format: cell-based, Enterococcus faecalis; Enterococcus faecium; details: 35 μg/mL, tetracycline pretreated VanA VRE, 30 minutes, 37° C.
Text: The inhibition of bacterial cell wall synthesis was established in an assay that quantitates the accumulation of the peptidoglycan precursor UDP-N-acetyl-muramyl-depsipentapeptide (Compound 19, UDPMurNAc-pp), resulting from inhibited cell wall incorporation following antibiotic treatment. […] This procedure was reduced in scale and modified to enlist reverse-phase HPLC separation, UV detection, and calibration curve determination of the amount of isolated 19, permitting use with limited sample sizes. A larger scale isolation and full characterization of 19 provided the material needed to establish a linear calibration curve.
The bacterial suspension was heated at 100° C. for 15 minutes to release cytosolic 19. The entire supernatant was analyzed by semi-preparative reverse-phase HPLC with a single injection and the amount of 19 was quantitated with use of the calibration curve.
Cultures of vancomycin-resistant Enterococcus faecalis (VanA VRE, BM4166) and Enterococcus faecium (VanA VRE, ATCC BAA-2317) were inoculated and grown in an orbital shaker at 37° C. in 100% brain-heart infusion broth for 12 hours. The above bacterial solution was subjected to a subculture to obtain fresh mid-log phase bacterial cells (total volume of bacterial suspension=5 mL, incubation time=6 hours, OD600=0.6). […] Vancomycin analogues were added and the mixture was incubated at 37° C. for a further 30 minutes.
After the bacteria were harvested (3000 rpm, 4° C., 20 minutes), this bacterial precipitate was washed and resuspended in 5 mM glucose and 5 mM HEPES buffer (500 μL, 1:1, pH=7.2). This bacterial suspension was heated at 100° C. for 15 minutes and centrifuged (13000 rpm, 25° C., 10 minutes). […] [*****Allen et al., Antimicrob. Agents Chemother. 1996, 40(10):2356-2362]; Liu et al., J. Am. Chem. Soc. 2001, 123:9916-9917.] The amount of UDP Mur N-Ac pentapeptide (19) was quantified by use of calibration curves for E. faecalis BM4166, and for E. faecium ATCC BAA-2317 based on the area under the curve (AUC).

[4] = system: Enterococcus faecium (VanA VRE, ATCC BAA-2317); experiment: In vitro antimicrobial assay (MIC), VanA E. faecium; format: cell-based; details: for antibiotic susceptibility profile of the strain: VanA E. faecium ATCC BAA-2317
Text: as §1, §2
(§3) [*Clinical and Laboratory Standards Institute. Methods for Dilution Antimicrobial Susceptibility Tests for Bacteria That Grow Aerobically; Approved Standard, 7th ed.; CLSI document M07-A8; Clinical and Laboratory Standards Institute: Wayne, Pa., 2009.]

[5] = system: vancomycin-resistant Enterococcus faecalis (VanA VRE, BM4166); experiment: In vitro antimicrobial assay (MIC), VanA E. faecalis; format: cell-based
Text: as §1, §2, §3

[6] = system: vancomycin-resistant Enterococcus faecalis (VanA VRE, BM4166); details: BM 4166; previously reported data; cited from earlier work
[7] = system: methicillin and oxacillin-resistant Staphylococcus aureus subsp. aureus (MRSA strain ATCC 43300); details: previously reported data; cited from earlier work
[8] = system: vancomycin-sensitive Staphylococcus aureus (VSSA strain ATCC 25923); details: previously reported data; cited from earlier work
[9] = system: vancomycin-resistant Enterococcus faecalis (VanB VRE, strain ATCC 51299); details: previously reported data; cited from earlier work
[10] = system: Enterococcus faecium (VanA VRE, ATCC BAA-2317); details: previously reported data; cited from earlier work
[11] = system: VanA VRE (E. faecalis BM4166 and E. faecium ATCC BAA-2317); experiment: Resistance development study (serial passaging at 0.5×MIC); format: cell-based, Enterococcus faecalis; Enterococcus faecium; details: 0.5×MIC serial exposure, MICs monitored daily
Description: However, an additional and even more important feature of the expression of multiple independent mechanisms of action is a mechanism's impact on the rate at which bacterial resistance may emerge.
The MICs of the vancomycin analogues against vancomycin-resistant Enterococcus faecalis (VanA VRE, BM4166) and Enterococcus faecium (VanA VRE, ATCC BAA-2317) were determined. […] A new MIC assay was performed with the same protocol. This process was repeated for 50 passages, and the fold increase in MIC was determined at each passage. [****Pollard et al., J. Antimicrob. Chemother. 2012, 67:2665-2672.]

Row | SMILES | inhibition of bacterial cell wall synthesis (accumulation of 19) [3] | Antimicrobial Activity, MIC, VanA E. faecalis [6] [µg/mL] | Antimicrobial Activity, MIC, MRSA S. aureus [7] [µg/mL] | Antimicrobial Activity, MIC, sensitive S. aureus [8] [µg/mL] | Antimicrobial Activity, MIC, VanB E. faecalis [9] [µg/mL] | Antimicrobial Activity, MIC, VanA E. faecium [10] [µg/mL] | emergence of resistance on serial passaging [11] | antibiotic susceptibility profile of the strain [4] | other results
1 | CCCCCCCCCCCCCC[N+](C)(C)CCCNC(=O)[C@H]1NC(=O)[C@H]2NC(=O)[C@@H](NC[C@@H]3NC(=O)[C@H](CC(N)=O)NC(=O)[C@H](NC(=O)[C@@H](CC(C)C)NC)[C@H](O)c4ccc(c(Cl)c4)Oc4cc3cc(c4OC3OC(CO)C(O)[C@H](O)[C@@H]3O[C@H]3CC(C)(N)[C@H](O)[C@H](C)O3)Oc3ccc(cc3Cl)[C@H]2O)c2ccc(O)c(c2)-c2c(O)cc(O)cc21 (some centres unmarked) [Compound 13] | equally active | – | – | – | – | – | – | – | induced cell membrane permeability (propidium uptake) [1]: produced pronounced cell membrane permeability immediately upon addition; MIC against VanA VRE ([2]; both VanA VRE strains): 0.16 µg/mL; fold more potent than pocket analog 4 against VanA VRE ([2]; relative to Compound 4): 200 fold; fold more potent than C14-vancomycin (12) against VanA VRE ([2]; relative to Compound 12): > 10 fold; fold more potent than vancomycin against VanA VRE ([2]; relative to vancomycin (1)): > 1000 fold; Antimicrobial Activity, MIC, VanA E. faecium ([4]; ATCC BAA-2317): 0.16 µg/mL; Antimicrobial Activity, MIC, VanA E. faecalis ([5]; BM 4166): 0.16 µg/mL
2 | CN[C@H](CC(C)C)C(=O)N[C@H]1C(=O)N[C@@H](CC(N)=O)C(=O)N[C@H]2C(=S)N[C@@H]3C(=O)N[C@H](C(=O)N[C@H](C(=O)O)c4cc(O)cc(O)c4-c4cc3ccc4O)[C@H](O)c3ccc(c(Cl)c3)Oc3cc2cc(c3OC2OC(CO)C(O)[C@H](O)[C@@H]2O[C@H]2CC(C)(N)[C@H](O)[C@H](C)O2)Oc2ccc(cc2Cl)[C@H]1O (some centres unmarked) [Compound 2] | do not effectively inhibit bacterial cell wall synthesis | >32 | >32 | >32 | >32 | >32 | – | – | –
3 | CNC(CC(C)C)C(=O)NC1C(=O)NC(CC(N)=O)C(=O)NC2CNC3C(=O)NC(C(=O)NC(C(=O)O)c4cc(O)cc(O)c4-c4cc3ccc4O)C(O)c3ccc(c(Cl)c3)Oc3cc2cc(c3OC2OC(CO)C(O)C(O)C2OC2CC(C)(N)C(O)C(C)O2)Oc2ccc(cc2Cl)[C@@H]1O (some centres unmarked) [Compound 4, [Ψ[CH2NH] Tpg^4]vancomycin] | inhibits bacterial cell wall biosynthesis; also recorded: equally active | 31 | – | – | – | 31 | – | – | MIC ([2]; Enterococcus, read-out: MIC against VanA VRE): 31 µg/mL (≈ 21.6 µM); MIC ([4]; Enterococcus faecium, read-out: Antimicrobial Activity, MIC, VanA E. faecium): 31 µg/mL (≈ 21.6 µM); MIC ([5]; Enterococcus faecalis, VRE, read-out: Antimicrobial Activity, MIC, VanA E. faecalis): 31 µg/mL (≈ 21.6 µM)
4 | CN[C@H](CC(C)C)C(=O)N[C@H]1C(=O)N[C@@H](CC(N)=O)C(=O)N[C@H]2C(=N)N[C@@H]3C(=O)N[C@H](C(=O)N[C@H](C(=O)O)c4cc(O)cc(O)c4-c4cc3ccc4O)[C@H](O)c3ccc(c(Cl)c3)Oc3cc2cc(c3OC2OC(CO)C(O)[C@H](O)[C@@H]2O[C@H]2CC(C)(NCc3ccc(-c4ccc(Cl)cc4)cc3)[C@H](O)[C@H](C)O2)Oc2ccc(cc2Cl)[C@H]1O (some centres unmarked) [Compound 7] | – | 0.005 | 0.06 | 0.03 | 0.06 | 0.005 | – | – | –
5 | CN(C)c1cc(NC(=O)CNC(C)(C)C)c(O)c2c1C[C@H]1C[C@H]3[C@H](N(C)C)C(O)=C(C(N)=O)C(=O)[C@@]3(O)C(O)=C1C2=O [tigecycline] | – | – | – | – | – | – | arises much faster and is much more pronounced; also recorded: arise much faster and was more pronounced | sensitive | –
6 | CC(=O)NC[C@H]1CN(c2ccc(N3CCOCC3)c(F)c2)C(=O)O1 [linezolid] | – | – | – | – | – | – | arises much faster and is much more pronounced; also recorded: arise much faster and was more pronounced | insensitive | –
